Test system: Kupffer cells
Experiment: Kupffer cell replacement in mice: gadolinium chloride followed by GFP bone marrow stem cells
Format: in vivo, C57BL/6 mice
Experimental: Bone marrow derived from C57BL/6-TgN(ACTbEGFP)10sb mice was injected into the tail vein of recipient C57BL/6 mice. Recipient mice were separated into two groups. One group received saline injection the other received gadolinium chloride (20-60 mg/kg i.v.: ICN Biomedicals, Aurora, Ohio) 24 hours before they received the bone marrow cells obtained from C57BL/6-TgN (ACTbEGFP) 10sb mice. The amount of bone marrow cells administered varied between 2×10^6 to 100×10^6 cells/animal. Mice were sacrificed 2 weeks after the stem cells were injected and livers were removed, fixed and prepared for fluorescent microscopy.
C57BL/6 mice were injected with 60 mg/Kg of gadolinium chloride 24 hours before injecting stem cells intravenously.

[1] = 60 mg/Kg gadolinium chloride 24 hours before stem cells i.v., two weeks after injection

[Cl][Gd]([Cl])[Cl] [gadolinium chloride]
GFP labeled Kupffer cells in liver, 10×10^6 stem cells vs 2×10^6 stem cells [1]: many more GFP labeled Kupffer cells
number of GFP-labeled Kupffer cells, 100×10^6 stem cells vs 10×10^6 stem cells [1]: did not significantly increase the number of GFP-labeled Kupffer cells
survival / evidence of toxicity (C57BL/6 mice, gadolinium chloride 20-60 mg/kg i.v. plus 2×10^6 to 100×10^6 bone marrow cells/animal, 2 weeks): All mice survived and none showed evidence of any toxicity
GFP-fluorescent Kupffer cells in liver (fluorescent microscopy) (gadolinium chloride 20-60 mg/kg i.v. 24 hours before bone marrow cells from TgN(ACTbEGFP)1Osb mice, livers 2 weeks after stem cells, vs saline control): contained many GFP-fluorescent Kupffer cells

— US20040234509A1, “Replacing liver cells with bone marrow-derived cells for treating disease and expressing therapeutic genes” (priority 2002, published 2004)
